From article PMC7714403 (JCI Insight, 2020)

Experiments:
FLT3 D835V = target: T1, FLT3 D835V (Homo sapiens, UniProt P36888, D835V); experiment: KdELECT binding assay
T1 construct: purchased Eurofins DiscoverX

FLT3 D835Y = target: T2, FLT3 D835Y (Homo sapiens, UniProt P36888, D835Y); experiment: Kinase assay by Reaction Biology; type: biochemical; conditions: enzymatic kinase assay
T2 construct: purchased Eurofins DiscoverX

[1] = system: phospho-FLT3 and phospho-STAT5 in Ba/F3-FLT3-ITD/F691L cells; experiment: Western blot, signaling inhibition; type: cell-based, mouse; conditions: increasing concentrations, 1 hour
Procedure: MOM13 cells were serum starved (RPMI plus 0.5% FBS) for 18–24 hours prior to start of drug treatment. For other cells, they were not serum starved. Drug treatments were carried out for 1 or 4 hours, at which time cells were lysed with Cell Lysis buffer (CST) or RIPA buffer (CST) supplemented with protease and phosphatase inhibitors. […] Western blots were developed with either Signal Fire ECL reagent (CST) or SuperSignal West Femto Maximum Sensitivity Substrate (Invitrogen) using Film or Odyssey FC Imaging System (LI-COR Biosciences). Western blots were repeated in 2–3 biological replicate experiments.

CRK7 = CRK7 (Homo sapiens, UniProt Q9NYV4); experiment: KiNativ, OCI cells live cell; type: cell-based; conditions: labeling site Lys2, peptide DIKCSNILLNNSGQIK
Erk2 = Erk2 (Homo sapiens, UniProt P28482); experiment: KiNativ, OCI cells live cell; type: cell-based; conditions: 2 h, labeling site Lys2, peptide […]
FES = FES (Homo sapiens, UniProt P07332); experiment: KiNativ, OCI cells live cell; type: cell-based; conditions: 2 h, labeling site Lys1, peptide […]
IRAK4 = target: T3, IRAK4 (Homo sapiens, UniProt Q9NWZ3); experiment: KiNativ, OCI cells live cell; type: cell-based
T3 sequence (Q9NWZ3 1-460): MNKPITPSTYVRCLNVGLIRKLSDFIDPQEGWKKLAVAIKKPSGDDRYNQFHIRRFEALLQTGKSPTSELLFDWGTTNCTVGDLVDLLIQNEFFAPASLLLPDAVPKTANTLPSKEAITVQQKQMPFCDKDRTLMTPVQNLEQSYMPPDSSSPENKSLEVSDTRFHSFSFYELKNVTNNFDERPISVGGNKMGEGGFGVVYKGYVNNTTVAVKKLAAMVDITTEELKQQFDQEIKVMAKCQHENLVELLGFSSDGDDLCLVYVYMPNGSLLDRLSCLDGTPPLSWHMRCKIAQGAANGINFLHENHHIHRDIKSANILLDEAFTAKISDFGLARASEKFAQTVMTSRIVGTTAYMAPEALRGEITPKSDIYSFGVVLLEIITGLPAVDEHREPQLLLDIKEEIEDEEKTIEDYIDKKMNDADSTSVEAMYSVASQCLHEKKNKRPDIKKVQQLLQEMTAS

MAP2K1, MAP2K2 = experiment: KiNativ, OCI cells live cell; type: cell-based, human; conditions: labeling site Lys2, peptide DVKPSNILVNSR
MAST1, MAST2 = experiment: KiNativ, OCI cells live cell; type: cell-based, human; conditions: labeling site Lys2, peptide DLKPDNLLITSMGHIK
NEK4 = NEK4 (Homo sapiens, UniProt P51957); experiment: KiNativ, OCI cells live cell; type: cell-based; conditions: 2 h, labeling site Lys2, peptide […]
RSK2 domain1 = target: T4, RSK2 domain1 (Homo sapiens, UniProt P51812); experiment: KiNativ, OCI cells live cell; type: cell-based; conditions: 2 h
T4 construct: RSK2 domain1

STLK5 = target: T5, STLK5 (Homo sapiens, UniProt Q7RTN6); experiment: KiNativ, OCI cells live cell; type: cell-based; conditions: 2 h, labeling site Lys2, peptide […]
T5 sequence (Q7RTN6 1-431): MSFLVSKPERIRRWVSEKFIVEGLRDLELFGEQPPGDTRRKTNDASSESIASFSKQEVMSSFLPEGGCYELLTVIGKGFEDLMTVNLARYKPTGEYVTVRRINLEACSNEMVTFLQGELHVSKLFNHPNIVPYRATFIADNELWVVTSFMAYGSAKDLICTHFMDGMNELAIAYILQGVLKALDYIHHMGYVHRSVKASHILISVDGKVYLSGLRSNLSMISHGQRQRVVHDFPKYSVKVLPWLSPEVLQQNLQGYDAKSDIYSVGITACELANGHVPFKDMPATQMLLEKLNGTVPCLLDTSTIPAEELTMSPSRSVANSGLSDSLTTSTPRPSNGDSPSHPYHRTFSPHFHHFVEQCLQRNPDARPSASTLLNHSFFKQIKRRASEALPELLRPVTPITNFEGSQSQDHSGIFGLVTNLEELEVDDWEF

TAK1 = TAK1 (Homo sapiens, UniProt O43318); experiment: KiNativ, OCI cells live cell; type: cell-based; conditions: 2 h, labeling site Lys2, peptide […]
TYK2 domain2 = target: T6, TYK2 domain2 (Homo sapiens, UniProt P29597); experiment: KiNativ, OCI cells live cell; type: cell-based
T6 construct: TYK2 domain2
T6 sequence (P29597 whole entry, the tested form may be a part): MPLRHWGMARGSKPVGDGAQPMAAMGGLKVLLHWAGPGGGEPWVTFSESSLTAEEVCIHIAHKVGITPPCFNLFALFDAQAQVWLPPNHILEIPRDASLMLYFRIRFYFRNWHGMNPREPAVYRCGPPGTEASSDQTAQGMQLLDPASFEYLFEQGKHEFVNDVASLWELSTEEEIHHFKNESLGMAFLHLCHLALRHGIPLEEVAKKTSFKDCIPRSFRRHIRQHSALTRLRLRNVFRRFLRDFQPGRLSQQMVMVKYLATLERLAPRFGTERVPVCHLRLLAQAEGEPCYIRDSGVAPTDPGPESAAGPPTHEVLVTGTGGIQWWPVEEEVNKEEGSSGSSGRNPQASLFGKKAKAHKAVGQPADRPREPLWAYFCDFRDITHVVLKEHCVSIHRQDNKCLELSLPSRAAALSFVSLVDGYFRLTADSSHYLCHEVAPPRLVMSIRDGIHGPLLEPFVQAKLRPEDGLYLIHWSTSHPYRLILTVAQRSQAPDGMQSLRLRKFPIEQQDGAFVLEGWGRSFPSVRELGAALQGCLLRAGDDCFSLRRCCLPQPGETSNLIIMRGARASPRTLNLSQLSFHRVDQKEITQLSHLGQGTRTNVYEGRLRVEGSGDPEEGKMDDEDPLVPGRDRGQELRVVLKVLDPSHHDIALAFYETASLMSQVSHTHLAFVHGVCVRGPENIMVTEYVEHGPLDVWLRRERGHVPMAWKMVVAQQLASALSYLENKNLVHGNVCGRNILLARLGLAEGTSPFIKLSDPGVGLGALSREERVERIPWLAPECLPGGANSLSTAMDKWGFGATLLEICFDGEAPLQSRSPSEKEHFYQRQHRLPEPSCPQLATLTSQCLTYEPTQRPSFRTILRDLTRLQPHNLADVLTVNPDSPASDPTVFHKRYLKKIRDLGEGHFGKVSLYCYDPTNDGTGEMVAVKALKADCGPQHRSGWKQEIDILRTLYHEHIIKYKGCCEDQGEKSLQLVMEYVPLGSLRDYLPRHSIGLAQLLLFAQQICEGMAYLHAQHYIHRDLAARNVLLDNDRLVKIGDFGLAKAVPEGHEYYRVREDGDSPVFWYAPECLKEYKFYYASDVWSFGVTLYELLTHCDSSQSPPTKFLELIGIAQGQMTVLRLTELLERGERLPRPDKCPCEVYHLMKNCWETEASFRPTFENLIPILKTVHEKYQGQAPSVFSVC

T4 sequence (P51812 whole entry, the tested form may be a part): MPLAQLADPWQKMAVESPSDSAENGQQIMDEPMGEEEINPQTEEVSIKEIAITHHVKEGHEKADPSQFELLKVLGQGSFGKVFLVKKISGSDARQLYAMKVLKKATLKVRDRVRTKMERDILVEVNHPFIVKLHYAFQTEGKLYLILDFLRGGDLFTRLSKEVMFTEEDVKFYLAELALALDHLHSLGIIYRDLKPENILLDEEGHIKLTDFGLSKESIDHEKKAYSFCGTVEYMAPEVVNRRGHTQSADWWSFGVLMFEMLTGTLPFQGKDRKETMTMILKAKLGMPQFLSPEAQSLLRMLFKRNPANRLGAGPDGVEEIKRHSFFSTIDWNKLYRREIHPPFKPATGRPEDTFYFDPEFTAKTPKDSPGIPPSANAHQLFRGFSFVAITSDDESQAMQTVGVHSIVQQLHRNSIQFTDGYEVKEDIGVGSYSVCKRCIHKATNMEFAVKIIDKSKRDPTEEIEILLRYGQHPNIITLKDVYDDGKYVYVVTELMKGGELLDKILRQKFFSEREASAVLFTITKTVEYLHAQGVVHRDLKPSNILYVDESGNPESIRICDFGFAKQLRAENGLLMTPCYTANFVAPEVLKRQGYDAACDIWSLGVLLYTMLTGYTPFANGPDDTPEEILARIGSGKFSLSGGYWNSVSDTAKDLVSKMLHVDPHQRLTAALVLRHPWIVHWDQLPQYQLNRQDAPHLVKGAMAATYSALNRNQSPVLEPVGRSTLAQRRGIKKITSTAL
Chain of FES (P07332 whole entry): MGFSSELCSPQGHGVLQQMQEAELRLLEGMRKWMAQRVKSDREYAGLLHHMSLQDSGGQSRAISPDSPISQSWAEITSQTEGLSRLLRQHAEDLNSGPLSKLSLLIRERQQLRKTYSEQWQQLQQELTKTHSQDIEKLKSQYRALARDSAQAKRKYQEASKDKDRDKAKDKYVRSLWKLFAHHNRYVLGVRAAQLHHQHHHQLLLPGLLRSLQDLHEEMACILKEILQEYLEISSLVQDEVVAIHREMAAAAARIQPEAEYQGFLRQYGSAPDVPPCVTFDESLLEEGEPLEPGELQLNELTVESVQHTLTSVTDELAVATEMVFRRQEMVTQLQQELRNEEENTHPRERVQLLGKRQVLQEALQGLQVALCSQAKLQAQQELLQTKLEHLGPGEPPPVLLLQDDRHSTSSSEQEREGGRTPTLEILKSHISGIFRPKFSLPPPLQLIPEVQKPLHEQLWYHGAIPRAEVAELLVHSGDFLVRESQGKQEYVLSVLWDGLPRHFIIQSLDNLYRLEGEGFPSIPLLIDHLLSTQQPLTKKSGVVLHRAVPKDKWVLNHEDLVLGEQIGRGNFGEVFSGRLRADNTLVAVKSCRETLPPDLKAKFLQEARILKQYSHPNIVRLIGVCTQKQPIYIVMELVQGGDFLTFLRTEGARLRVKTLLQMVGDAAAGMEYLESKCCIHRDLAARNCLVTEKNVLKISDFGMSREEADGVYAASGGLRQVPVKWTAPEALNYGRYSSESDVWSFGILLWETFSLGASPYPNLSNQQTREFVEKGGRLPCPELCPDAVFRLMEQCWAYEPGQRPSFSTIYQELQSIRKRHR
Chain of Erk2 (P28482 whole entry): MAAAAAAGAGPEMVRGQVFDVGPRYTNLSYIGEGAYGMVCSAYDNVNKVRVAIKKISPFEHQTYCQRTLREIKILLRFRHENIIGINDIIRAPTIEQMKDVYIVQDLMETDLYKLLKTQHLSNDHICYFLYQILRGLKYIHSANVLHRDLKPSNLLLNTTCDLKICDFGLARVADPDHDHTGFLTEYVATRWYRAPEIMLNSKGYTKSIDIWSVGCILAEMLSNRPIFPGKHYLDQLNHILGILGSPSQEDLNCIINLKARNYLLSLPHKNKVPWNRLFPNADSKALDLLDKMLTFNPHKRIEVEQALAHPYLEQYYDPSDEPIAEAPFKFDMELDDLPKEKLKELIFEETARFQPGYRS
Chain of NEK4 (P51957 whole entry, the tested form may be a part): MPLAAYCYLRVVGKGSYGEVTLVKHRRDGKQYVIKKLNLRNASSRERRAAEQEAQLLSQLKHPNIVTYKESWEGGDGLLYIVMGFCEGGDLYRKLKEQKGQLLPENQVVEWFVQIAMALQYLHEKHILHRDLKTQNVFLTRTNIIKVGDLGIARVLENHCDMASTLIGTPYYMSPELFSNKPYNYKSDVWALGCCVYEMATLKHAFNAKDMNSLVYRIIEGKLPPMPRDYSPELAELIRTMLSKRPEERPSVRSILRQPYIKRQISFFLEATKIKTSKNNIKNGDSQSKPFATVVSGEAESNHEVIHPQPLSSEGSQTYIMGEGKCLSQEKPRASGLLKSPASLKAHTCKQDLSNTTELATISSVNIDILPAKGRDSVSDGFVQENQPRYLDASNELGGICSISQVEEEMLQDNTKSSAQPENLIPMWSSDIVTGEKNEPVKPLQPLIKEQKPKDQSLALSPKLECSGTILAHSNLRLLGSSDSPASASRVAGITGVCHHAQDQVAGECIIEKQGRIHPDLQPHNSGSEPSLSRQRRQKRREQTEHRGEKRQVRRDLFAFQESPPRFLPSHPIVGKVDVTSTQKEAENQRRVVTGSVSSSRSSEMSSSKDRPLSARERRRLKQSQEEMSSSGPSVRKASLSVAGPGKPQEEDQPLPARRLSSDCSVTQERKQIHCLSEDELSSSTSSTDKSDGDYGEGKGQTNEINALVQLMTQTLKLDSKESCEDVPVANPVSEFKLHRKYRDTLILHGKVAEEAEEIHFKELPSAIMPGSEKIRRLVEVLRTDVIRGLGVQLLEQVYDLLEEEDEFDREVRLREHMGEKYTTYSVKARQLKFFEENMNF
Chain of TAK1 (O43318 whole entry, the tested form may be a part): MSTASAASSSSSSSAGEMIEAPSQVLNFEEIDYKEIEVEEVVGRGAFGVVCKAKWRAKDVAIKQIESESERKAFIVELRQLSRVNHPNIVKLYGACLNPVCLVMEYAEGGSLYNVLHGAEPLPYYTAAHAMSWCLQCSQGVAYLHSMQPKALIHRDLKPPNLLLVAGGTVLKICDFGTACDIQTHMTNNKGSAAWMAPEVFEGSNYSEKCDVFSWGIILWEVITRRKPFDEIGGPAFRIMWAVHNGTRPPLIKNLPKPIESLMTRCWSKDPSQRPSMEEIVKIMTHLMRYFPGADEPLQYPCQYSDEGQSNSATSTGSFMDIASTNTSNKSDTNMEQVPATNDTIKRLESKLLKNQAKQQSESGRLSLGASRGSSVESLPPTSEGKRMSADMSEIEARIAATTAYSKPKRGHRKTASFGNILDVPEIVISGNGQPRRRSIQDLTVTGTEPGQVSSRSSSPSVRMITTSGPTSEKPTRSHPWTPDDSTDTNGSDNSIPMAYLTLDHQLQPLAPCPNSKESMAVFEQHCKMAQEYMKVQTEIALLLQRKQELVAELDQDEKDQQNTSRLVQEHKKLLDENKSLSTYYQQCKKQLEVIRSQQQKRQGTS

CN1CCN(Cc2ccc(Nc3ncc(Cl)c(Nc4ccccc4S(=O)(=O)N(C)C)n3)cc2)CC1 [TP-0903]
Kd (FLT3 D835V): 2.1 nM
IC50 (FLT3 D835Y): 0.12 nM
phospho-FLT3 and phospho-STAT5 by immunoblot [1]: inhibition
Inhibition (CRK7): 57.2%
inhibition at 0.1 µM (Erk2): 22.7%
inhibition at 0.1 µM (FES): 47.3%
Inhibition (IRAK4; labeling site Lys1, peptide GYVNNTTVAVKK): -0.0707%
Inhibition (IRAK4; labeling site Lys2, peptide DIKSANILLDEAFTAK): 8.2%
Inhibition (MAP2K1, MAP2K2): 11.7%
Inhibition (MAST1, MAST2): -5.0%
inhibition at 0.1 µM (NEK4): -12.3%
inhibition at 0.1 µM (RSK2 domain1; labeling site Activation Loop, peptide LTDFGLSKESIDHEKK): 52.4%
inhibition at 0.1 µM (RSK2 domain1; labeling site Lys1, peptide QLYAMKVLK): 48.2%
inhibition at 0.1 µM (STLK5): -46.6%
inhibition at 0.1 µM (TAK1): -11.5%
Inhibition (TYK2 domain2; labeling site Activation Loop, peptide IGDFGLAKAVPEGHEYYR): -38.7%
Inhibition (TYK2 domain2; labeling site Lys1, peptide VSLYCYDPTNDGTGEMVAVKALK): 21.1%
